From US20030228607A1, “Screening method and modulators having an improved therapeutic profile” (priority 2002, published 2003)

Target: T1, LXRα and LXRβ (Homo sapiens, UniProt P55055+Q13133)
T1 construct: made in house
T1 sequence (Q13133 188-447 limits assumed): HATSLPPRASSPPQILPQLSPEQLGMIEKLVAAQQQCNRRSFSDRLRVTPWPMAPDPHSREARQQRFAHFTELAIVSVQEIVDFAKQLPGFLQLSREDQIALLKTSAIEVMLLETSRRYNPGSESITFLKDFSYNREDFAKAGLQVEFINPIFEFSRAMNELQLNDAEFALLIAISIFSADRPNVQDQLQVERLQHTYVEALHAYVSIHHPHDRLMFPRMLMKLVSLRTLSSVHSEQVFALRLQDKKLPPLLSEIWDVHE
T1 sequence (P55055 197-460 limits assumed): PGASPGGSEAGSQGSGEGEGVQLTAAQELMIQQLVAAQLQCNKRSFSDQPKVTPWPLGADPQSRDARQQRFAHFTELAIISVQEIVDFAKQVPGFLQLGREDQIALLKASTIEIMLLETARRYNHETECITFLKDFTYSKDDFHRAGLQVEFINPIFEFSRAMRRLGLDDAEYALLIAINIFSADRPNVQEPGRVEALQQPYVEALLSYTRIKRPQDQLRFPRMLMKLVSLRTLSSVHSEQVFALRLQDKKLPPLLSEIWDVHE
T1 sequence (Q15788 676-700 partner limits assumed): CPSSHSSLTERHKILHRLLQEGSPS
Assay: High throughput FRET co-activator (SRC-1) recruitment assay, multiplexed
Format: biochemical
Settings: 10 uM, positive control; negative control DMSO around 0
Experimental: FIG. 9. is a scatter plot of a co-activator recruitment assay showing fluorescence emitted from APC at 665 nm in a FRET based (biochemical) co-factor recruitment assay that detects the binding of the SCR-1 co-activator to […]. In this assay, recruitment of SCR-1 to both LXRα and LXRβ were simultaneously assayed.
High through FRET cofactor interaction assays were performed in 96 or 384 well assay well plates using automated liquid handling and analysis. Screens for LXR were performed using the protocol below. Equivalent screens for FXR were performed using the FXR (SEQ.ID. No. 4) ligand binding domain in place of LXRα and LXRβ LBD and at a concentration of 8 nM per well.
1. Partially purified recombinant protein comprising glutathione-S-transferase fused in frame to the LXR-ligand binding domain (comprising amino acids 188-447 of human LXRα (SEQ. ID. No. 6), or amino acids 198-461 of human LXRβ (SEQ. ID. No. 7)).
2. Biotinylated peptide containing a SRC-1 receptor interaction motif(B-SRC-1) (SEQ. ID. No. 46).
3. […]
d) Plates were read using an LJL Analyst, or similar instrument, using the following conditions: Channel 1: The excitation wavelength was set to 330 nm, emitted light was collected at 615 nm, with 100 flashes per well, an integration time of 1000 μs; a 10 msec interval between flashes, and a delay after flashes of 200 μs. […]

Q: For `CC(C)CC[C@@H](O)[C@@H](C)[C@H]1CC[C@H]2[C@@H]3CC=C4C[C@@H](O)CC[C@]4(C)[C@H]3CC[C@]12C` [22-R-Hydroxy-Cholesterol], which “fluorescence emitted from APC at 665 nm (SRC-1 recruitment, Spotfire scale)” value is on record?
A: Its value is “around 100”.
